Experimental data taken from ChEMBL document CHEMBL1158222, “Antiinflammatory C-glucosyl chromone from Aloe barbadensis” (1996).
Active and inactive are the calls of the source. The rule behind the calls is not given here.

Experiments:
Mus musculus [1] = species: Mus musculus; experiment: Reduction in thymus weight in BALB/c mouse at 400 ug/ear; format: functional, organism-based
Mus musculus [2] = species: Mus musculus; experiment: Antiinflammatory activity against croton oil-induced ear inflammation in BALB/c mouse at 200 ug/ear after 6 to 24 hrs; format: functional, organism-based
Mus musculus [3] = species: Mus musculus; experiment: Reduction in thymus weight in BALB/c mouse at 200 ug/ear; format: functional; set-up: scale not given: the % may be the effect or the level left

Compound: COc1cc(C)c2c(=O)cc(C[C@@H](C)O)oc2c1[C@@H]1O[C@H](CO)[C@@H](O)[C@H](O)[C@H]1OC(=O)/C=C/c1ccccc1
- Activity (Mus musculus [1]): inactive
- Activity (Mus musculus [2]): Active

Compound: C[C@]12CCC(=O)C=C1CC[C@@H]1[C@@H]2[C@@H](O)C[C@@]2(C)[C@H]1CC[C@]2(O)C(=O)CO [HYDROCORTISONE]
- Activity (Mus musculus [3]): 50%
- Activity (Mus musculus [2]): Active
